Reference: patent publication US20230203081A1, “LINCOSAMIDE ANTIBIOTICS AND USES THEREOF” (President and Fellows of Harvard College, priority 2020, published 2023)
In brackets after ≈: the same amount, converted by molar mass.

Columns and labels:
Format in all cases: cell-based
E. coli ΔTolC = assay: microbe, parasite or virus in culture; conditions: Escherichia coli, E. coli HAV#038; ΔTolC
Summary of the method: (§1)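 Per CLSI, MICs by broth microdilution or agar dilution; strains other than streptococci and anaerobes were sub-cultured overnight at 35° C on blood agar, with a final broth inoculum of 5×10^5 CFU/mL.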

S. aureus MP-549 msrA = assay: microbe, parasite or virus in culture; conditions: Staphylococcus aureus, MP549MSRA; S. aureus HAV#032, MP-549; MSR(A); read-out: MIC
Summary of the method: as §1

B. fragilis ATCC 25285 = assay: MIC (broth microdilution or agar dilution, CLSI); conditions: Bacteroides fragilis, ATCC25285, B. fragilis HAV#013, ATCC 25285; read-out: MIC
Summary of the method: (§2)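 CLSI MIC, broth microdilution or agar dilution; compound 128-0.06 μg/mL, 2.5% DMSO final; triplicate. Anaerobes (e.g. clostridia) and streptococci run by specialized procedures. Other strains: overnight 35° C on blood agar, CaMHB, 0.5 McFarland, inoculum 5×10^5 CFU/mL.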

C. difficile ATCC 700057 = assay: MIC (broth microdilution or agar dilution, CLSI); conditions: Clostridioides difficile, ATCC700057; C. difficile HAV#011, ATCC 700057; read-out: MIC
Summary of the method: as §2

E. coli ATCC 25922 = assay: MIC (broth microdilution or agar dilution, CLSI); conditions: Escherichia coli, ATCC25922; E. coli HAV#006, ATCC 25922; read-out: MIC
Summary of the method: as §1

E. coli LptD = assay: MIC (broth microdilution or agar dilution, CLSI); conditions: Escherichia coli, E. coli HAV#040; LptD; read-out: MIC
Summary of the method: as §1

E. faecalis ATCC 29212 = assay: MIC (broth microdilution or agar dilution, CLSI); conditions: Enterococcus faecalis, ATCC29212, E. faecalis HAV#005, ATCC 29212; read-out: MIC
Summary of the method: as §1

H. influenzae ATCC 49247 = assay: MIC (broth microdilution or agar dilution, CLSI); conditions: Haemophilus influenzae, ATCC49247; H. influenzae HAV#007, ATCC 49247; read-out: MIC
Summary of the method: as §1

K. pneumoniae ATCC 10031 = assay: MIC (broth microdilution or agar dilution, CLSI); conditions: Klebsiella pneumoniae, ATCC10031, K. pneumoniae HAV#008, ATCC 10031; read-out: MIC
Summary of the method: as §1

S. aureus ATCC 29213 = assay: MIC (broth microdilution or agar dilution, CLSI); conditions: Staphylococcus aureus, ATCC29213, S. aureus HAV#001, ATCC 29213, MP-549; read-out: MIC
Summary of the method: as §1

S. pneumoniae ATCC 49619 = assay: MIC (broth microdilution or agar dilution, CLSI); conditions: Streptococcus pneumoniae, ATCC49619, S. pneumoniae HAV#003, ATCC 49619; read-out: MIC
Summary of the method: as §1

S. pyogenes ATCC 19615 = assay: MIC (broth microdilution or agar dilution, CLSI); conditions: Streptococcus pyogenes, ATCC19615, S. pyogenes HAV#004, ATCC 19615; read-out: MIC
Summary of the method: as §1

E. coli armA = assay: microbe, parasite or virus in culture; conditions: Escherichia coli, E. coli armA
Summary of the method: as §1

E. faecium Line R & VRE = assay: MIC (broth microdilution or agar dilution, CLSI); conditions: Enterococcus faecium, E. faecium Line R & VRE, read-out: MIC
Summary of the method: as §2

E. faecium VRE = assay: MIC (broth microdilution or agar dilution, CLSI); conditions: Enterococcus faecium; E. faecium VRE; read-out: MIC
Summary of the method: as §2

P. aeruginosa ATCC 27853 = assay: MIC (broth microdilution or agar dilution, CLSI); conditions: Pseudomonas aeruginosa, ATCC27853; P. aeruginosa ATCC 27853; read-out: MIC
Summary of the method: as §2

P. aeruginosa ΔAmex OprM = assay: MIC (broth microdilution or agar dilution, CLSI); conditions: Pseudomonas aeruginosa
Summary of the method: as §2

S. aureus MRSA = assay: MIC (broth microdilution or agar dilution, CLSI); conditions: Staphylococcus aureus
Summary of the method: as §2

A. baumannii ATCC 19606 = assay: MIC (broth microdilution or agar dilution, CLSI); conditions: Acinetobacter baumannii, ATCC19606; A. baumannii ATCC 19606; read-out: MIC
Summary of the method: as §1

[1] = system: E. faecalis MMX 847; cErmB; assay: MIC (broth microdilution or agar dilution, CLSI); conditions: Enterococcus faecalis; E. faecalis MMX 847; cErmB; read-out: MIC
Summary of the method: as §1

S. aureus ATCC 700699 = assay: MIC (broth microdilution or agar dilution, CLSI); conditions: Staphylococcus aureus, ATCC700699; S. aureus ATCC 700699; read-out: MIC
Summary of the method: as §1

[2] = system: S. aureus ATCC BAA-1707 (MRSA); assay: MIC (broth microdilution or agar dilution, CLSI); conditions: Staphylococcus aureus; S. aureus ATCC BAA-1707 (MRSA); read-out: MIC
Summary of the method: as §1

S. aureus hVISA = assay: MIC (broth microdilution or agar dilution, CLSI); conditions: Staphylococcus aureus; S. aureus hVISA; read-out: MIC
Summary of the method: as §1

S. pneumoniae ATCC 6303 = assay: MIC (broth microdilution or agar dilution, CLSI); conditions: Streptococcus pneumoniae, ATCC6303; S. pneumoniae ATCC 6303; read-out: MIC
Summary of the method: as §1

[3] = system: S. pneumoniae MMX 3028 cErmB; assay: MIC (broth microdilution or agar dilution, CLSI); conditions: Streptococcus pneumoniae, MMX3028CERMB; S. pneumoniae MMX 3028 cErmB; read-out: MIC
Summary of the method: as §1

[4] = system: S. pneumoniae MMX 3031 cMefA; assay: MIC (broth microdilution or agar dilution, CLSI); conditions: Streptococcus pneumoniae, MMX3031CMEFA, S. pneumoniae MMX 3031 cMefA; read-out: MIC
Summary of the method: as §1

[5] = system: S. pyogenes MMX 946; cErmB; assay: MIC (broth microdilution or agar dilution, CLSI); conditions: Streptococcus pyogenes; S. pyogenes MMX 946; cErmB; read-out: MIC
Summary of the method: as §1

E. faecalis VRE [6] = assay: MIC (CLSI), first E. faecalis VRE line of Table 4; conditions: Enterococcus faecalis; E. faecalis VRE (Table 4, first VRE line); read-out: MIC
Procedure: (§3) Minimum inhibitory concentrations (MICs) were determined by broth microdilution method or agar dilution method following the Clinical and Laboratory Standards Institute guidelines. Standard bacterial strains were obtained from American Type Culture Collection (ATCC). Other bacterial strains were obtained from hospitals and commercial sources, so noted in Table 11. Before the start of the MIC experiment, standard and test compound stock solutions were prepared in dimethyl sulfoxide (DMSO, Aldrich D2650) at a stock concentration of 5,120 μg/mL. The compound concentration range typically employed for each experiment was 128-0.06 μg/mL (2.5% final DMSO concentration). Clindamycin was used as a comparator in all experiments and each experiment was performed in triplicate. Specialized procedures were employed for streptococcal and anaerobic strains. All other bacterial strains were sub-cultured on blood agar plates (tryptic soy agar with 5% sheep blood, Hardy Diagnostics) and incubated overnight at 35° C. Organisms were suspended in cation-adjusted Mueller-Hinton broth (CaMHB, BD 212322) and optical density was adjusted to 0.5 McFarland standard. Suspensions were further diluted to obtain a final inoculum of 5×10^5 CFU/mL for broth microdilution experiments.

E. faecalis VRE [7] = assay: MIC (CLSI), second E. faecalis VRE line of Table 4; conditions: Enterococcus faecalis; E. faecalis VRE (Table 4, second VRE line); read-out: MIC
Procedure: as §3

E. faecalis VRE [8] = assay: MIC (CLSI), third E. faecalis VRE line of Table 4; conditions: Enterococcus faecalis; E. faecalis VRE (Table 4, third VRE line); read-out: MIC
Procedure: as §3

CCN1CCN(c2cc3c(cc2F)c(=O)c(C(=O)O)cn3C2CC2)CC1 [Enrofloxacin]
MIC (E. coli ΔTolC): ≤ 0.06 µg/mL | MIC (S. aureus MP-549 msrA): 0.5 µg/mL (≈ 1.39 µM) | MIC (B. fragilis ATCC 25285): 2 µg/mL (≈ 5.56 µM) | MIC (C. difficile ATCC 700057): 32 µg/mL (≈ 89 µM) | MIC (E. coli ATCC 25922): ≤ 0.06 µg/mL | MIC (E. coli LptD): ≤ 0.06 µg/mL | MIC (E. faecalis ATCC 29212): 0.5 µg/mL (≈ 1.39 µM) | MIC (H. influenzae ATCC 49247): ≤ 0.06 µg/mL | MIC (K. pneumoniae ATCC 10031): ≤ 0.06 µg/mL | MIC (S. aureus ATCC 29213): 0.125 µg/mL (≈ 0.348 µM) | MIC (S. pneumoniae ATCC 49619): 0.25 µg/mL (≈ 0.696 µM) | MIC (S. pyogenes ATCC 19615): 0.25 µg/mL (≈ 0.696 µM)

C=CC[C@@H]1CCO[C@@H]2[C@H](CN[C@@H]2C(=O)N[C@H]([C@H](C)Cl)[C@H]2OC(SC)[C@H](O)[C@H](O)C2O)C1 (stereo partly drawn) [FSA-10-09-045]
MIC (E. coli armA): 8 µg/mL (≈ 16.7 µM) | MIC (E. faecium Line R & VRE): 16 µg/mL (≈ 33.4 µM) | MIC (E. faecium VRE): 8 µg/mL (≈ 16.7 µM) | MIC (P. aeruginosa ATCC 27853): > 128 µg/mL | MIC (P. aeruginosa ΔAmex OprM): 2 µg/mL (≈ 4.18 µM) | MIC (S. aureus MRSA): 0.06 µg/mL (≈ 0.125 µM) | MIC (A. baumannii ATCC 19606): 16 µg/mL (≈ 33.4 µM) | MIC [1]: 8 µg/mL (≈ 16.7 µM) | MIC (S. aureus ATCC 700699): 8 µg/mL (≈ 16.7 µM) | MIC [2]: 0.06 µg/mL (≈ 0.125 µM) | MIC (S. aureus hVISA): 8 µg/mL (≈ 16.7 µM) | MIC (S. pneumoniae ATCC 6303): 0.06 µg/mL (≈ 0.125 µM) | MIC [3]: 0.5 µg/mL (≈ 1.04 µM) | MIC [4]: 0.06 µg/mL (≈ 0.125 µM) | MIC [5]: 1 µg/mL (≈ 2.09 µM) | MIC (E. faecalis VRE [6]): 16 µg/mL (≈ 33.4 µM) | MIC (E. faecalis VRE [7]): 32 µg/mL (≈ 66.8 µM) | MIC (E. faecalis VRE [8]): 8 µg/mL (≈ 16.7 µM)
